# Results published in ChEMBL document CHEMBL1201862, “PubChem BioAssay data set” (2004).
#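 96-well plates; 48 h exposure; 5 concentrations. Endpoints by linear interpolation between flanking doses. Not reached: highest tested concentration assigned. GI50 is the concentration that inhibits growth by half.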 Activity calls are given as the source filed them. No stated cut-off is given here; in the data, active = GI50 up to about 1.1 µM and inactive = higher.
# How the values were obtained:
# Test in all cases: NCI anticancer screen, dose series, 48 h
# K562 = test system: K562
# NCI-H23 = test system: NCI-H23
# XF498 = test system: XF498
# SF-539 = test system: SF-539
# SN12C = test system: SN12C
# DLD-1 = test system: DLD-1
# TK-10 = test system: TK-10
# EKVX = test system: EKVX
# OVCAR-4 = test system: OVCAR-4
# RPMI-8226 = test system: RPMI-8226
# CCRF-CEM = test system: CCRF-CEM
# SK-MEL-28 = test system: SK-MEL-28
# SW-620 = test system: SW-620
# HT-29 = test system: HT-29
# HL-60 = test system: HL-60
# IGROV-1 = test system: IGROV-1
# A498 = test system: A498
# RXF 631 = test system: RXF 631
# SR = test system: SR
# A549 = test system: A549
# 786-0 = test system: 786-0
# Malme-3M = test system: Malme-3M
# SNB-75 = test system: SNB-75
# MOLT-4 = test system: MOLT-4
# HCT-15 = test system: HCT-15
# SK-MEL-2 = test system: SK-MEL-2
# M19-MEL = test system: M19-MEL
# HOP-62 = test system: HOP-62
# LXFL 529 = test system: LXFL 529
# LOX IMVI = test system: LOX IMVI
# ACHN = test system: ACHN
# SNB-19 = test system: SNB-19
# UACC-257 = test system: UACC-257
# NCI-H460 = test system: NCI-H460
# UACC-62 = test system: UACC-62
# U-251 = test system: U-251
# HCC 2998 = test system: HCC 2998
# DMS-273 = test system: DMS-273
# COLO 205 = test system: COLO 205
# UO-31 = test system: UO-31
# HCT-116 = test system: HCT-116
# HOP-18 = test system: HOP-18
# OVCAR-5 = test system: OVCAR-5
# SF-295 = test system: SF-295
# DMS-114 = test system: DMS-114
# NCI-H226 = test system: NCI-H226
# KM-20L2 = test system: KM-20L2
# HOP-92 = test system: HOP-92
# OVCAR-8 = test system: OVCAR-8
# CAKI-1 = test system: CAKI-1
# RXF 393 = test system: RXF 393
# KM12 = test system: KM12
# SF-268 = test system: SF-268
# SNB-78 = test system: SNB-78
# M14 = test system: M14
structure (smiles),measurement,setting,value
Oc1cc(-c2ccco2)nc2cc3c(cc12)OCO3,GI50,K562,6.61 µM (inactive)
same,GI50,NCI-H23,80.9 µM (inactive)
same,GI50,XF498,39.8 µM (inactive)
same,GI50,SF-539,25.7 µM (inactive)
same,GI50,SN12C,55.5 µM (inactive)
same,GI50,DLD-1,39 µM (inactive)
same,GI50,TK-10,72.6 µM (inactive)
same,GI50,EKVX,> 100 µM (inactive)
same,GI50,OVCAR-4,34.1 µM (inactive)
same,GI50,RPMI-8226,40.1 µM (inactive)
same,GI50,CCRF-CEM,38.4 µM (inactive)
same,GI50,SK-MEL-28,> 100 µM (inactive)
same,GI50,SW-620,25.9 µM (inactive)
same,GI50,HT-29,43.3 µM (inactive)
same,GI50,HL-60,27.7 µM (inactive)
same,GI50,IGROV-1,29.6 µM (inactive)
same,GI50,A498,35.6 µM (inactive)
same,GI50,RXF 631,52.2 µM (inactive)
same,GI50,SR,54.3 µM (inactive)
same,GI50,A549,52.8 µM (inactive)
same,GI50,786-0,26.5 µM (inactive)
same,GI50,Malme-3M,42.4 µM (inactive)
same,GI50,SNB-75,12.5 µM (inactive)
same,GI50,MOLT-4,33.7 µM (inactive)
same,GI50,HCT-15,38.3 µM
same,GI50,SK-MEL-2,57.8 µM (inactive)
same,GI50,M19-MEL,44.9 µM (inactive)
same,GI50,HOP-62,10.9 µM (inactive)
same,GI50,LXFL 529,58.9 µM (inactive)
same,GI50,LOX IMVI,50.6 µM (inactive)
same,GI50,ACHN,91 µM (inactive)
same,GI50,SNB-19,27.1 µM (inactive)
same,GI50,UACC-257,60 µM (inactive)
same,GI50,NCI-H460,34.3 µM (inactive)
same,GI50,UACC-62,27.9 µM (inactive)
same,GI50,U-251,> 100 µM (inactive)
same,GI50,HCC 2998,> 100 µM (inactive)
same,GI50,DMS-273,20 µM (inactive)
same,GI50,COLO 205,17.6 µM (inactive)
same,GI50,UO-31,46.2 µM (inactive)
CCOC(=O)/C=C(\C)c1ccc(Cl)cc1,GI50,K562,> 100 µM (inactive)
same,GI50,HCT-116,> 100 µM (inactive)
same,GI50,HOP-18,> 100 µM (inactive)
same,GI50,NCI-H23,> 100 µM (inactive)
same,GI50,XF498,> 100 µM (inactive)
same,GI50,SF-539,> 100 µM (inactive)
same,GI50,OVCAR-5,> 100 µM (inactive)
same,GI50,SN12C,> 100 µM (inactive)
same,GI50,DLD-1,> 100 µM (inactive)
same,GI50,TK-10,> 100 µM (inactive)
same,GI50,SF-295,> 100 µM (inactive)
same,GI50,DMS-114,> 100 µM (inactive)
same,GI50,EKVX,> 100 µM (inactive)
same,GI50,NCI-H226,54.8 µM (inactive)
same,GI50,OVCAR-4,> 100 µM (inactive)
same,GI50,RPMI-8226,> 100 µM (inactive)
same,GI50,KM-20L2,> 100 µM (inactive)
same,GI50,CCRF-CEM,> 100 µM (inactive)
same,GI50,SK-MEL-28,> 100 µM (inactive)
same,GI50,SW-620,> 100 µM (inactive)
same,GI50,HT-29,> 100 µM (inactive)
same,GI50,HL-60,> 100 µM (inactive)
same,GI50,IGROV-1,> 100 µM (inactive)
same,GI50,A498,> 100 µM (inactive)
same,GI50,RXF 631,> 100 µM (inactive)
same,GI50,SR,> 100 µM (inactive)
same,GI50,A549,> 100 µM (inactive)
same,GI50,Malme-3M,> 100 µM (inactive)
same,GI50,SNB-75,> 100 µM (inactive)
same,GI50,MOLT-4,> 100 µM (inactive)
same,GI50,HCT-15,> 100 µM
same,GI50,SK-MEL-2,> 100 µM (inactive)
same,GI50,HOP-92,> 100 µM (inactive)
same,GI50,OVCAR-8,> 100 µM (inactive)
same,GI50,LXFL 529,> 100 µM (inactive)
same,GI50,LOX IMVI,> 100 µM (inactive)
same,GI50,ACHN,> 100 µM (inactive)
same,GI50,CAKI-1,> 100 µM (inactive)
same,GI50,SNB-19,> 100 µM (inactive)
same,GI50,UACC-257,> 100 µM (inactive)
same,GI50,NCI-H460,> 100 µM (inactive)
same,GI50,RXF 393,> 100 µM (inactive)
same,GI50,KM12,> 100 µM (inactive)
same,GI50,SF-268,> 100 µM (inactive)
same,GI50,U-251,> 100 µM (inactive)
same,GI50,HCC 2998,> 100 µM (inactive)
same,GI50,SNB-78,> 100 µM (inactive)
same,GI50,DMS-273,> 100 µM (inactive)
same,GI50,M14,> 100 µM (inactive)
same,GI50,COLO 205,> 100 µM (inactive)
same,GI50,UO-31,> 100 µM (inactive)
